Source: ChEMBL document CHEMBL1144232, “Tricyclic azepine derivatives as selective brain penetrant 5-HT6 receptor antagonists” (Bioorg Med Chem Lett, 2008)

How the values were obtained:
Cytochrome P450 3A4 [1] = molecular target: T1, Cytochrome P450 3A4 (Homo sapiens, UniProt P08684); assay: Inhibition of human CYP3A4 by microtiter plate assays using PPR substrate
[2] = molecular target: T2, 5-hydroxytryptamine receptor 6 (Homo sapiens, UniProt P50406); assay: Antagonist activity at 5HT6 receptor expressed in HeLa cells assessed as 5HT-induced cAMP accumulation by chemiluminescence assay; assay type: functional, cell-based
T2 sequence (P50406 whole entry): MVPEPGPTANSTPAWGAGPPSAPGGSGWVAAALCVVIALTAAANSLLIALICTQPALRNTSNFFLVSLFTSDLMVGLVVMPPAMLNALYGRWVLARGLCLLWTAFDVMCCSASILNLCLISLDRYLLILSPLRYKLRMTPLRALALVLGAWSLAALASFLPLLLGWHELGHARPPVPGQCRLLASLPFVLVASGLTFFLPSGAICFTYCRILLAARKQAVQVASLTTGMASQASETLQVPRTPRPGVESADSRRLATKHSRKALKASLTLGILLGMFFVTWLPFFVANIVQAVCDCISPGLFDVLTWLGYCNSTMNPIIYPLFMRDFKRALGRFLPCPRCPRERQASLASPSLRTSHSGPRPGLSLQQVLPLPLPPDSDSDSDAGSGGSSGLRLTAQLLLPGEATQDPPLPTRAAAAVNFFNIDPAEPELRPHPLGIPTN

Liver microsomes = assay: Metabolic stability in rat liver microsomes assessed as intrinsic clearance at […] upto 30 mins; assay type: ADME, Microsome; conditions: 0.5 h
Cytochrome P450 3A4 [3] = molecular target: T1, Cytochrome P450 3A4; assay: Inhibition of human CYP3A4 by microtiter plate assays using N-N,diethyl-formamide as substrate
[4] = Ratio of drug level in brain to blood in orally dosed rat after 4 hrs; conditions: brain and blood, po
Blood = assay: Drug level in rat blood at 1 mg/kg, po; assay type: ADME, organism-based; parameters: dose 1 mg/kg, route oral; conditions: in vivo, read-out: Drug uptake
[5] = molecular target: T2, 5-hydroxytryptamine receptor 6; assay: Antagonist activity at 5HT6 receptor; assay type: functional
[6] = molecular target: 5-hydroxytryptamine receptor 2A (Homo sapiens, UniProt P28223); assay: Antagonist activity at 5HT2A receptor; assay type: functional
Chain of 5-hydroxytryptamine receptor 2A (P28223 whole entry): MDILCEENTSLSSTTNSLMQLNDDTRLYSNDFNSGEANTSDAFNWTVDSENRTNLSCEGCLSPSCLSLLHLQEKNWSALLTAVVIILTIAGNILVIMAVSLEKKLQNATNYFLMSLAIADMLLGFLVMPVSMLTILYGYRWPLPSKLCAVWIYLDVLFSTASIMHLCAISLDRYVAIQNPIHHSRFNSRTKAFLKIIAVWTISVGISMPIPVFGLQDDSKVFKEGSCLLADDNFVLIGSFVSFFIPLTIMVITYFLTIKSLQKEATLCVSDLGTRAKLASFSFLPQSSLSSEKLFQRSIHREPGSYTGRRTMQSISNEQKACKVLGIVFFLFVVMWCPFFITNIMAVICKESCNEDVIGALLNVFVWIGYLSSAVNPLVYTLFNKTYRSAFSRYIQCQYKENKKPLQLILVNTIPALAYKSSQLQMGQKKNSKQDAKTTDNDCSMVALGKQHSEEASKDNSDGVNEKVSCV

[7] = molecular target: 5-hydroxytryptamine receptor 2B (Homo sapiens, UniProt P41595); assay: Antagonist activity at 5HT2B receptor; assay type: functional
Chain of 5-hydroxytryptamine receptor 2B (P41595 whole entry): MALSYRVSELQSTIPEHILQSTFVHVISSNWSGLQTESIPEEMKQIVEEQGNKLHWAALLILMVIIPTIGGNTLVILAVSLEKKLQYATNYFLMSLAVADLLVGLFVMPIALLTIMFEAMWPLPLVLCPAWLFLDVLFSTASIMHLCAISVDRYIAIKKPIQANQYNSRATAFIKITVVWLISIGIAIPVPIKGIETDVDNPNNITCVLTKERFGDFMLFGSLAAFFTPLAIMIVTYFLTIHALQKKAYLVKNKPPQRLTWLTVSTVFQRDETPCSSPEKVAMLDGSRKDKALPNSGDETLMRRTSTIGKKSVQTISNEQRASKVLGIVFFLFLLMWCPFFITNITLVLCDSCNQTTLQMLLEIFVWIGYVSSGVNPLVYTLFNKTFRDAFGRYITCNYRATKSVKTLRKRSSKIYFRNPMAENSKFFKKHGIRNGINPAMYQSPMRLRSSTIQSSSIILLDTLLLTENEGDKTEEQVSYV

[8] = molecular target: T3, 5-hydroxytryptamine receptor 2C (Homo sapiens, UniProt P28335); assay: Antagonist activity at 5HT2C receptor; assay type: functional
T3 sequence (P28335 whole entry): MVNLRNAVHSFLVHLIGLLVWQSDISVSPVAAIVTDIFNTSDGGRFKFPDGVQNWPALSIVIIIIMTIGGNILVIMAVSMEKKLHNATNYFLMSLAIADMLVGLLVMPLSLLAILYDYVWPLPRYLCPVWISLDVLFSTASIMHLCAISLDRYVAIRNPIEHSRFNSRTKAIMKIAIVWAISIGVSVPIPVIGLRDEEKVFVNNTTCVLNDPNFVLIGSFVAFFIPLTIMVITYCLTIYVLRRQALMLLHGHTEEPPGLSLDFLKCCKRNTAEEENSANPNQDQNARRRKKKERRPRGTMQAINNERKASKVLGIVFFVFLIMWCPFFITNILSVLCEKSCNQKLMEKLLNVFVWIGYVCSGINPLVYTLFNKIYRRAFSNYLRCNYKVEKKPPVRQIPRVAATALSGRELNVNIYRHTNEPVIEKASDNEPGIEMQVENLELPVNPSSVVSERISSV

[9] = molecular target: 5-hydroxytryptamine receptor 6 (Rattus norvegicus) (UniProt P31388); assay: Ex vivo displacement of [125I]258585 from 5HT6 receptor in po dosed rat striatum; assay type: organism-based
Chain of 5-hydroxytryptamine receptor 6 (Rattus norvegicus) (P31388 whole entry): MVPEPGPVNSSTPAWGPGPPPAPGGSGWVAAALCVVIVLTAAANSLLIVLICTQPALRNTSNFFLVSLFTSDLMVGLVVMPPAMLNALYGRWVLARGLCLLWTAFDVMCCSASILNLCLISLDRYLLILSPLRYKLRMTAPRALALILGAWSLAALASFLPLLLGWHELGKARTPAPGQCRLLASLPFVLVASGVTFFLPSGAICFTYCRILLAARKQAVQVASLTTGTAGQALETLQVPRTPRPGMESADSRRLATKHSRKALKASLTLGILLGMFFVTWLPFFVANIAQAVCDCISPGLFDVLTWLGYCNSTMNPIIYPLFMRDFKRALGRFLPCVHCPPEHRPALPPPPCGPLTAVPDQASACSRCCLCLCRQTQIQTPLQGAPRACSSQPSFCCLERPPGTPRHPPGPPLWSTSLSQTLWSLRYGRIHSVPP

T1 sequence (P08684 whole entry): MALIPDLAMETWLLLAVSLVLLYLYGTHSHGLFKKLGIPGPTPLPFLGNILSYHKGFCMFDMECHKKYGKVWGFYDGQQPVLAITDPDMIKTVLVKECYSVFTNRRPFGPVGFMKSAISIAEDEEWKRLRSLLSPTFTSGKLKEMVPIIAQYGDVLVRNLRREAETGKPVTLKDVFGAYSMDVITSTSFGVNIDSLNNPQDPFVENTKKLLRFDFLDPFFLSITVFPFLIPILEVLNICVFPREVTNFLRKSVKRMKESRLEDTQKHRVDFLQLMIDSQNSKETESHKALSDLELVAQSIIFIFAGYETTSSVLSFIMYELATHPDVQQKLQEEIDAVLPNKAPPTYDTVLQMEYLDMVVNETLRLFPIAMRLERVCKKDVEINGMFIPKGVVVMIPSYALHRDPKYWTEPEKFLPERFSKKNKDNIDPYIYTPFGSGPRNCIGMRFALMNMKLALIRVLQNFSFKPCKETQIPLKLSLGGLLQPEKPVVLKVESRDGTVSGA

IC50 (Cytochrome P450 3A4 [1]) [nM]	Ki [2] [nM]	CL (Liver microsomes) [mL/min/g]	IC50 (Cytochrome P450 3A4 [3]) [nM]	SMILES	further results
27000	2	2.7	17000	COc1cccc(S(=O)(=O)n2ccc3cc4c(cc32)CCNCC4)c1	
	7.94			O=S(=O)(c1ccc(Cl)cc1)n1ccc2cc3c(cc21)CCNCC3	
7000	1.58	2.5	3000	O=S(=O)(c1cccc(Cl)c1)n1ccc2cc3c(cc21)CCNCC3	Kp at 4 h [4]: 5; concentration (Blood): 38 nM
3200	7.94	4.5	2500	O=S(=O)(c1ccccc1Cl)n1ccc2cc3c(cc21)CCNCC3	
77000	100	3.6	39000	O=S(=O)(c1ccccn1)n1ccc2cc3c(cc21)CCNCC3	
13000	2	4.6	7800	Cn1cc(S(=O)(=O)c2ccccc2)c2cc3c(cc21)CCNCC3	
				O=S(=O)(Nc1ccc2c(c1)CCNCC2)c1ccccc1	Kp at 4 h [4]: 0.5; Ki [5]: 2 nM
20000	1.58	7.1	12000	O=S(=O)(c1ccccc1)n1ccc2cc3c(cc21)CCNCC3	
	3.98	< 0.5		O=S(=O)(c1cccc(Cl)c1)n1cc(Cl)c2cc3c(cc21)CCNCC3	
19000	2.51	1.7	12000	O=S(=O)(c1ccccc1)n1cc(Cl)c2cc3c(cc21)CCNCC3	Ki [6]: 25.1 nM; Ki [7]: 398 nM; Ki [8]: 158 nM; ED50 [9]: 4 mg/kg
22000	7.94	21	9700	O=S(=O)(c1ccsc1)n1ccc2cc3c(cc21)CCNCC3	
71000	1.26	22	15000	CN1CCc2cc3ccn(S(=O)(=O)c4cccc(Cl)c4)c3cc2CC1	
	39.8			O=S(=O)(c1ccccc1)N1CCCc2cc3c(cc21)CCNCC3	
